Measurements from patent US20080027044A1, “Prodrug antibiotic screens” (priority 2006, published 2008).
In brackets after ≈: the same amount, converted by molar mass.

Assays:
[1] = tested on: E. coli K12 Δactivating enzyme; experiment: MIC, broth microdilution, strains deleted in activating enzyme; assay type: cell-based; conditions: anaerobic conditions
Procedure: (§1) Cells were tested in a standard broth microdilution assay, inoculating 10^5 cells per well of a microtiter plate in LB broth. Overexpression and deletion strains were compared to the appropriate isogenic wild type. IPTG was added at 1 mM to growth medium. Experiments involving nfnB and nfsA strains were performed under anaerobic conditions.

[2] = tested on: E. coli K12 ΔtolC overexpressing activating enzyme; experiment: MIC, broth microdilution, tolC deletion strains (MDR efflux test); assay type: cell-based
Text: Prodrugs are activated by activating enzymes into reactive molecules that bind to their targets, creating an irreversible sink. This may lead to insensitivity of the overall process to MDR efflux. In order to test this possibility, an E. coli K12 with a deletion in tolC coding for the outer membrane porin that is a component of the transenvelope MDRs was utilized (Li, X. Z et al. (2004) Drugs 64:159-204). This strain is highly sensitive to antibiotics (Tegos et al. (2002) Antimicrob. Agents Chemother. 46:3133-3141). […] The substrate specificity of AcrAB is remarkably broad, and includes essentially all small molecular weight amphipathic compounds. The AcrAB substrates include anions (SDS, fatty acids, bile acids), neutral compounds (macrolides, chloramphenicol, tetracyclines) and cations or compounds that can form cations (acridine, quaternary compound antiseptics, fluoroquinolones). AcrAB can extrude the best natural broad spectrum antibiotics that evolved for good penetration —chloramphenicol and tetracycline; and extrude the best synthetic broad-spectrums, the fluoroquinolones. Indeed, amphipathic antimicrobials that are not an AcrAB substrate are not known.
as §1

[3] = tested on: E. coli K12 overexpressing activating enzyme; experiment: MIC, broth microdilution, strains overexpressing activating enzyme; assay type: cell-based; conditions: for MIC: 1 mM IPTG; for susceptibility of strains overexpressing the corresponding activating enzymes: in words
Text: Next, the hits that verify and have reduced activity compared to wild type or no activity against strains deleted in a known or putative enzyme are validated. The rationale is to test the hit against a strain overexpressing the putative activating enzyme. Strains overexpressing activating enzymes have considerably higher susceptibility to prodrugs. It is important to note that conventional antibiotics that inhibit specific targets have increased activity against strains with diminished expression of the target, and decreased activity if the target is overproduced (Schmid, M. B. (2001) New targets and strategies for identification of novel classes of antibiotics. In Antibiotic Development and Resistance. Hughes, D. and Andersson, D. I. (eds). New York: Taylor and Francis, pp. 197-208; Sun, D.e.a. (2001) In 41st Interscience Conference on Antimicrobial Agents and Chemotherapy Chicago: ASM, pp. 77). A prodrug hit has higher activity against a strain overexpressing an activating enzyme, and lower activity against a strain lacking/diminished in an activating enzyme. This behavior of a prodrug hit is the exact opposite from what one expects from a specific antibiotic, and will provide for an excellent preliminary validation of prodrugs. This validation is facilitated by the availability of the ASKA library of E. coli strains overexpressing all known ORFs. The University of Nagoya freely distributes this resource (Saka et al. (2005) DNA Res. 12:63-68). The library contains 4,382 individual E. coli K12 W3110 clones, each carrying a single ORF cloned in an expression vector pCA24N under a pT5/lac promoter. The N-termini carry a his-tag linked to the ORF by a 7 amino acid spacer. The vector carries a CAM resistance marker and a lacl^q gene for a tight control of IPTG-inducible expression.
(§2) The ASKA strains of interest are validated for functional expression of the enzyme. If the protein is not expressed from a given expression vector the ORF will be recloned. A strain overexpressing the activating enzyme from the ASKA library is then tested with the hit compound. If the hit has greater activity against this overexpressing strain as compared to the wild type, this indicates a prodrug. The test is performed in a standard broth microdilution assay for MIC determination. Hits with the lowest wild type MIC are then focused on.
as §1

E. coli K12 wt = experiment: MIC, standard broth microdilution assay, wild type; assay type: cell-based; conditions: in words; all strains tested
Procedure: as §2, §1

P. aeruginosa = experiment: Killing of logarithmic, stationary and biofilm cultures by bactericidal antimicrobials (colony count); assay type: cell-based; conditions: in words
Procedure: Persister cells in planktonic and biofilm populations are characterized for their antibiotic sensitivity in this example. Several bactericidal antimicrobials were chosen to test the resistance of P. aeruginosa to killing—ofloxacin, a fluoroquinolone; tobramycin, an aminoglycoside; carbenicillin, a β-lactam; and peracetic acid, a disinfectant oxidant (Spoering et al. (2001) J. Bacteriol. 183:6746-6751). Biofilms were grown essentially by the method of Ceri (Ceri et al. (1999) J. Clin. Microbiol. 37:1771-1776) and as described in Brooun et al. (2000) Antimicrob. Agents Chemother. 44:640-646. The device used for biofilm formation is a platform carrying 96 polystyrene pegs that fit in a microtiter plate. Preformed biofilms were incubated in the presence of an antimicrobial agent, and survival was measured after disrupting the biofilms by colony count.
Carbenicillin is a bactericidal antibiotic that, similarly to most β-lactams, only kills rapidly growing cells (Tuomanen et al. (1986) Scand. J. Gastroenterol. Suppl:10-14). Logarithmic state, stationary and biofilm cultures were challenged with carbenicillin.
Unlike carbenicillin, ofloxacin can kill non-growing cells (Brooun et al. (2000) Antimicrob. Agents Chemother. 44:640-646). […] After a 6 hours incubation time with the antibiotic, viability was determined by colony count. […]

[4] = Schulz et al. (1997); cited from earlier work
[5] = E. coli K12 ΔtolC nfnB+ (overexpressing), anaerobic conditions
[6] = E. coli K12 ΔtolC nfsA+ (overexpressing), anaerobic conditions
[7] = E. coli K12 nfnB+ (overexpressing), anaerobic conditions
[8] = E. coli K12 nfsA+ (overexpressing), anaerobic conditions

SMILES: NC(=O)c1cc([N+](=O)[O-])cc([N+](=O)[O-])c1 [3,5-Dinitrobenzamide]
- MIC ([1]; E. coli K12 nfnB− (deleted)): >500 µg/mL
- MIC ([1]; E. coli K12 nfsA− (deleted)): >500 µg/mL
- MIC [2, 5]: 15.6 µg/mL (≈ 73.9 µM)
- MIC [2, 6]: 7.8 µg/mL (≈ 36.9 µM)
- MIC [3, 7]: 15.6 µg/mL (≈ 73.9 µM)
- MIC [3, 8]: 7.8 µg/mL (≈ 36.9 µM)
- susceptibility of strains overexpressing the corresponding activating enzymes [3]: significantly increased susceptibilities

SMILES: Nc1nc(O)ncc1F [5-fluorocytosine, 5-Fluorocytosine]
- activity against any strains tested (E. coli K12 wt): little activity

SMILES: NC(=O)c1cc(N2CC2)c([N+](=O)[O-])cc1[N+](=O)[O-] [Dinitroaziridinylbenzamide (CB1954), Dinitroaziridinylbenzamide]
- MIC [2, 5]: 3.3 µg/mL (≈ 13.1 µM)
- MIC [2, 6]: 6.3 µg/mL (≈ 25 µM)
- MIC [3, 7]: 3.3 µg/mL (≈ 13.1 µM)
- MIC [3, 8]: 6.3 µg/mL (≈ 25 µM)
- susceptibility of strains overexpressing the corresponding activating enzymes [3]: significantly increased susceptibilities

SMILES: CC[C@H]1OC(=O)[C@H](C)[C@@H](O[C@H]2C[C@@](C)(OC)[C@@H](O)[C@H](C)O2)[C@H](C)[C@@H](O[C@@H]2O[C@H](C)C[C@H](N(C)C)[C@H]2O)[C@](C)(O)C[C@@H](C)C(=O)[C@H](C)[C@@H](O)[C@]1(C)O [Erythromycin]
- MIC ([2]; E. coli K12 ΔtolC codA+ (overexpressing)): 1.56 µg/mL (≈ 2.13 µM)
- MIC ([2]; E. coli K12 ΔtolC deoD+ (overexpressing)): 1.56 µg/mL (≈ 2.13 µM)
- MIC [2, 5]: 1.56 µg/mL (≈ 2.13 µM)
- MIC [2, 6]: 1.56 µg/mL (≈ 2.13 µM)
- MIC ([3]; E. coli K12 codA+ (overexpressing)): 200 µg/mL (≈ 273 µM)
- MIC ([3]; E. coli K12 deoD+ (overexpressing)): 200 µg/mL (≈ 273 µM)
- MIC [3, 8]: 200 µg/mL (≈ 273 µM)

SMILES: CC(=O)OO [Peracetic acid, peracetic acid]
- killing of logarithmic, stationary and biofilm cultures (P. aeruginosa; all three cultures): all cultures were sterilized

SMILES: NC[C@H]1O[C@H](O[C@H]2[C@H](O)[C@@H](O[C@H]3O[C@H](CO)[C@@H](O)[C@H](N)[C@H]3O)[C@H](N)C[C@@H]2N)[C@H](N)C[C@@H]1O [Tobramycin, tobramycin]
- killing of logarithmic cells (P. aeruginosa; logarithmic cells): no logarithmic persisters were detected
- clinically achievable concentration [4]: 10 µg/mL

SMILES: CC1COc2c(N3CCN(C)CC3)c(F)cc3c(=O)c(C(=O)O)cn1c23 (stereo not drawn) [ofloxacin]
- clinically achievable concentration [4]: 5 µg/mL
